For orientation: IC50 means the concentration at which inhibition is half-maximal. Broadly, the pIC50 is −log10 of the IC50, conventionally taken in molar units.

Experiment [1] concerns the target T1, PLK1 (Homo sapiens, UniProt P53350). Kind of experiment: Cellular PLK1 assay in K562 cells overexpressing CDC25C. It counts as cell-based. On the set-up: endogenous in cells; host or cells: K562 (human chronic myelogenous leukemia) overexpressing CDC25C, nocodazole-arrested. The following applies: nocodazole arrested, cdc25c p-Ser198 readout. An outline of the steps:
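K562 cells overexpressing CDC25C were arrested with 333 nM nocodazole for 18 h at 37 °C, then exposed to compound at 8 points from 10 μM to 0.005 μM in duplicate for 120 min. After fixation and permeabilization, cells were stained for cdc25c pSer198 with a PE secondary and read by flow cytometry, 10,000 cells per well.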

Experiment [2] concerns the target T1, PLK1. Kind of experiment: In vitro PLK1 ELISA assay (biochemical). On the set-up: purchased Cell Signalling 7728. Particulars: for IC50: ELISA, CHK2-derived peptide substrate, read-out: PLK1 IC50 (μM) biochemical assay. The method in brief:
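Commercial PLK1 phosphorylates neutravidin-captured biotinylated CHK2 peptide for 45 min at room temperature in HEPES pH 7.2 with Mg2+/Mn2+/DTT, compounds at 10 μM to 0.005 μM. Phospho-CHK2(T68) antibody plus HRP secondary gives chemiluminescent read-out used for IC50.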
A general note: An ELISA detects its analyte on a solid surface through an enzyme-linked reagent.

The mark [3] stands for this setting: read-out: IC50 in biochemical in vitro PLK1 ELISA assay (less than 10 μM).
Setting [4] is: read-out: IC50 in biochemical ELISA assay (less than 0.01 μM).

pIC50: −log10 of the molar value.

T1 sequence (P53350 whole entry): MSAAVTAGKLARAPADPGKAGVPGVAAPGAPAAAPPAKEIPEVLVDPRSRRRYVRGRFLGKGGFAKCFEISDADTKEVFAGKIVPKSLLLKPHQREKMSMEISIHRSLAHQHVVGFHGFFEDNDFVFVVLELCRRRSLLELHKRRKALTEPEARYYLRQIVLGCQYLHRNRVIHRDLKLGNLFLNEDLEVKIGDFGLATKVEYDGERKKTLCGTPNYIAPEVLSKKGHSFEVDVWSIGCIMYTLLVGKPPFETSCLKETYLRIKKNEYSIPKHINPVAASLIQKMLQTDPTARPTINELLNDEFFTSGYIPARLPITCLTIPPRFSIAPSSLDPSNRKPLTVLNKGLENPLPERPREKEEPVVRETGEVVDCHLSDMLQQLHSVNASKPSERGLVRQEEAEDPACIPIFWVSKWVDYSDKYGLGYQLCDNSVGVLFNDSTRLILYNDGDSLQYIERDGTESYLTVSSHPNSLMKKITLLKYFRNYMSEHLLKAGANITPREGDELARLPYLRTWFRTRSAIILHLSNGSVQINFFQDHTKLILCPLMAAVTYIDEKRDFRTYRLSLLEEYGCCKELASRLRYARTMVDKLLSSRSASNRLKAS

Turning to `Cc1cc(Nc2ncc(C)c(Nc3ccc4c(n3)N(CC3CCCCC3)C(=O)CO4)n2)ccc1N1CCN(C)CC1` [compound 119, 4-(cyclohexylmethyl)-6-(5-methyl-2-(3-methyl-4-(4-methylpiperazin-1-yl)phenylamino)pyrimidin-4-ylamino)-2H-pyrido[3,2-b][1,4]oxazin-3(4H)-one], the IC50 in experiment [1] and in experiment [2] was at least 10 µM in each case.

In the case of `CN1CCN(c2cccc(Nc3ncc(F)c(Nc4ccc5c(n4)N(Cc4ccccc4)C(=O)CO5)n3)c2)CC1` [compound 120, 4-benzyl-6-(5-fluoro-2-(3-(4-methylpiperazin-1-yl)phenylamino)pyrimidin-4-ylamino)-2H-pyrido[3,2-b][1,4]oxazin-3(4H)-one], the IC50 in experiment [1] and in experiment [2] was 0.5 to 5 µM throughout. Besides, the pIC50 in experiment [2] (setting [3]) was over 5.00.

For the compound `Cc1cc(Nc2ncc(C)c(Nc3ccc4c(n3)N(Cc3ccccc3)C(=O)CO4)n2)ccc1N1CCN(C)CC1` [compound 121, 4-benzyl-6-(5-methyl-2-(3-methyl-4-(4-methylpiperazin-1-yl)phenylamino)pyrimidin-4-ylamino)-2H-pyrido[3,2-b][1,4]oxazin-3(4H)-one], the IC50 was 0.5 to 5 µM in experiment [1] and at least 10 µM in experiment [2].

For the compound `Cc1cnc(Nc2cccc(N3CCN(C)CC3)c2)nc1Nc1ccc2c(n1)N(Cc1ccccc1)C(=O)CO2` [compound 122, 4-benzyl-6-(5-methyl-2-(3-(4-methylpiperazin-1-yl)phenylamino)pyrimidin-4-ylamino)-2H-pyrido[3,2-b][1,4]oxazin-3(4H)-one], the IC50 in experiment [1] was 0.5 to 5 µM; in experiment [2] it was under 0.5 µM. In addition, the negative logarithm of the IC50 (pIC50) is over 8.00 in experiment [2] (setting [4]) and over 5.00 in experiment [2] (setting [3]).

Regarding `COc1ccc(CN2C(=O)COc3ccc(Nc4nc(Nc5cccc(N6CCN(C)CC6)c5)ncc4F)nc32)cc1` [compound 123, 6-(5-fluoro-2-(3-(4-methylpiperazin-1-yl)phenylamino)pyrimidin-4-ylamino)-4-(4-methoxybenzyl)-2H-pyrido[3,2-b][1,4]oxazin-3(4H)-one], the IC50 in experiment [1] and in experiment [2] was at least 10 µM throughout.

`COc1ccc(CN2C(=O)COc3ccc(Nc4nc(Nc5ccc(N6CCN(C)CC6)c(C)c5)ncc4F)nc32)cc1` [compound 124, 6-(5-fluoro-2-(3-methyl-4-(4-methylpiperazin-1-yl)phenylamino)pyrimidin-4-ylamino)-4-(4-methoxybenzyl)-2H-pyrido[3,2-b][1,4]oxazin-3(4H)-one]: the IC50 in experiment [1] and in experiment [2] was at least 10 µM throughout.

Turning to `COc1ccc(CN2C(=O)COc3ccc(Nc4nc(Nc5cccc(N6CCN(C)CC6)c5)ncc4C)nc32)cc1` [compound 125, 4-(4-methoxybenzyl)-6-(5-methyl-2-(3-(4-methylpiperazin-1-yl)phenylamino)pyrimidin-4-ylamino)-2H-pyrido[3,2-b][1,4]oxazin-3(4H)-one], the figures for the IC50 in experiment [1] and in experiment [2] were at least 10 µM and 5 to 10 µM, respectively. The pIC50 in experiment [2] (setting [3]) was over 5.00.

Consider `COc1ccc(CN2C(=O)COc3ccc(Nc4nc(Nc5ccc(N6CCN(C)CC6)c(C)c5)ncc4C)nc32)cc1` [compound 126, 4-(4-methoxybenzyl)-6-(5-methyl-2-(3-methyl-4-(4-methylpiperazin-1-yl)phenylamino)pyrimidin-4-ylamino)-2H-pyrido[3,2-b][1,4]oxazin-3(4H)-one], for which the IC50 in experiment [1] is 0.5 to 5 µM; in experiment [2] it was at least 10 µM.

In the case of `C#CCN1C(=O)COc2ccc(Nc3nc(Nc4cccc(N5CCN(C)CC5)c4)ncc3C)nc21` [compound 127, 6-(5-methyl-2-(3-(4-methylpiperazin-1-yl)phenylamino)pyrimidin-4-ylamino)-4-(prop-2-ynyl)-2H-pyrido[3,2-b][1,4]oxazin-3(4H)-one], the IC50 in experiment [1] and in experiment [2] was under 0.5 µM throughout. For the same compound, the pIC50 in experiment [2] (setting [4]) is over 8.00; in experiment [2] (setting [3]) it was over 5.00.

For `C#CCN1C(=O)COc2ccc(Nc3nc(Nc4cccc(N5CCN(C)CC5)c4)ncc3F)nc21` [compound 128, 6-(5-fluoro-2-(3-(4-methylpiperazin-1-yl)phenylamino)pyrimidin-4-ylamino)-4-(prop-2-ynyl)-2H-pyrido[3,2-b][1,4]oxazin-3(4H)-one], the IC50 in experiment [1] was 0.5 to 5 µM; in experiment [2] it was under 0.5 µM. Also, the pIC50 was over 8.00 in experiment [2] (setting [4]) and over 5.00 in experiment [2] (setting [3]).

As for `Cc1cnc(Nc2cccc(N3CCN(C)CC3)c2)nc1Nc1ccc2c(n1)N(CC1CC1)C(=O)CO2` [compound 129, 4-(cyclopropylmethyl)-6-(5-methyl-2-(3-(4-methylpiperazin-1-yl)phenylamino)pyrimidin-4-ylamino)-2H-pyrido[3,2-b][1,4]oxazin-3(4H)-one], the IC50 in experiment [1] was 0.5 to 5 µM; in experiment [2], under 0.5 µM. For the same compound, the pIC50 in experiment [2] (setting [4]) is over 8.00; in experiment [2] (setting [3]), over 5.00.

As for `Cc1cnc(Nc2cccc(N3CCN(C)CC3)c2)nc1Nc1ccc2c(n1)N(CC1CCC1)C(=O)CO2` [compound 130, 4-(cyclobutylmethyl)-6-(5-methyl-2-(3-(4-methylpiperazin-1-yl)phenylamino)pyrimidin-4-ylamino)-2H-pyrido[3,2-b][1,4]oxazin-3(4H)-one], the IC50 in experiment [1] was 0.5 to 5 µM; in experiment [2], under 0.5 µM. Also, the pIC50 in experiment [2] (setting [4]) was over 8.00; in experiment [2] (setting [3]) it was over 5.00.

On to `CN1CCN(c2cccc(Nc3ncc(F)c(Nc4ccc5c(n4)N(C4CCCC4)C(=O)CO5)n3)c2)CC1` [compound 131, 4-cyclopentyl-6-(5-fluoro-2-(3-(4-methylpiperazin-1-yl)phenylamino)pyrimidin-4-ylamino)-2H-pyrido[3,2-b][1,4]oxazin-3(4H)-one], for which the IC50 was at least 10 µM in experiment [1] and 0.5 to 5 µM in experiment [2]. Further, the pIC50 in experiment [2] (setting [3]) was over 5.00.

As for `CN1CCN(c2cccc(Nc3ncc(F)c(Nc4ccc5c(n4)N(Cc4ccc(F)cc4)C(=O)CO5)n3)c2)CC1` [compound 132, 6-(5-fluoro-2-(3-(4-methylpiperazin-1-yl)phenylamino)pyrimidin-4-ylamino)-4-(4-fluorobenzyl)-2H-pyrido[3,2-b][1,4]oxazin-3(4H)-one], the IC50 in experiment [1] lay in the range of 0.5 to 5 µM; in experiment [2], 5 to 10 µM. In addition, in experiment [2] (setting [3]), the pIC50 was over 5.00.

`Cc1cnc(Nc2cccc(N3CCN(C)CC3)c2)nc1Nc1ccc2c(n1)N(Cc1ccc(F)cc1)C(=O)CO2` [compound 133, 4-(4-fluorobenzyl)-6-(5-methyl-2-(3-(4-methylpiperazin-1-yl)phenylamino)pyrimidin-4-ylamino)-2H-pyrido[3,2-b][1,4]oxazin-3(4H)-one]: the IC50 in experiment [1] was 0.5 to 5 µM; in experiment [2] it was under 0.5 µM. For the same compound, the pIC50 in experiment [2] (setting [3]) is over 5.00.

Regarding `CCC(CC)N1C(=O)COc2ccc(Nc3nc(Nc4cccc(N5CCN(C)CC5)c4)ncc3F)nc21` [compound 134, 6-(5-fluoro-2-(3-(4-methylpiperazin-1-yl)phenylamino)pyrimidin-4-ylamino)-4-(pentan-3-yl)-2H-pyrido[3,2-b][1,4]oxazin-3(4H)-one], the IC50 in experiment [1] and in experiment [2] was under 0.5 µM throughout. Moreover, the pIC50 was over 8.00 in experiment [2] (setting [4]) and over 5.00 in experiment [2] (setting [3]).

For `CCCN1C(=O)COc2ccc(Nc3nc(Nc4ccc(N5CCN(C)CC5)c(C(F)(F)F)c4)ncc3F)nc21` [compound 135, 6-(5-fluoro-2-(4-(4-methylpiperazin-1-yl)-3-(trifluoromethyl)phenyl-amino)pyrimidin-4-ylamino)-4-propyl-2H-pyrido[3,2-b][1,4]oxazin-3(4H)-one], the IC50 in experiment [1] and in experiment [2] was at least 10 µM in each case.

As for `CCCN1C(=O)COc2ccc(Nc3nc(Nc4ccc(N5CCN(C)CC5)c(C(F)(F)F)c4)ncc3C)nc21` [compound 136, 6-(5-methyl-2-(4-(4-methylpiperazin-1-yl)-3-(trifluoromethyl)phenyl-amino)pyrimidin-4-ylamino)-4-propyl-2H-pyrido[3,2-b][1,4]oxazin-3(4H)-one], the IC50 in experiment [1] and in experiment [2] was at least 10 µM in each case.

With `CCCN1C(=O)COc2ccc(Nc3nc(Nc4ccc(N5CCN(S(C)(=O)=O)CC5)c(C(F)(F)F)c4)ncc3F)nc21` [compound 137, 6-(5-fluoro-2-(4-(4-(methylsulfonyl)piperazin-1-yl)-3-(trifluoro-methyl)phenyl-amino)pyrimidin-4-ylamino)-4-propyl-2H-pyrido[3,2-b][1,4]oxazin-3(4H)-one], the IC50 in experiment [1] and in experiment [2] was at least 10 µM in each case.

Take `CCCN1C(=O)COc2ccc(Nc3nc(Nc4ccc(N5CCNCC5)c(C(F)(F)F)c4)ncc3F)nc21` [compound 138, 6-(5-fluoro-2-(4-(piperazin-1-yl)-3-(trifluoromethyl)phenyl-amino)pyrimidin-4-ylamino)-4-propyl-2H-pyrido[3,2-b][1,4]oxazin-3(4H)-one]: the IC50 in experiment [1] and in experiment [2] was at least 10 µM in each case.

With `Cc1cc(Nc2ncc(C)c(Nc3ccc4c(c3)N(Cc3ccccn3)C(=O)C(F)(F)O4)n2)ccc1N1CC2CC1CN2C` (centres unmarked) [compound 139, 2,2-difluoro-6-(5-methyl-2-(3-methyl-4-(5-methyl-2,5-diaza-bicyclo[2.2.1]heptan-2-yl)phenyl-amino)pyrimidin-4-ylamino)-4-(pyridin-2-ylmethyl)-2H-benzo[b][1,4]oxazin-3(4H)-one], the results for the IC50 in experiment [1] and in experiment [2] were 5 to 10 µM and at least 10 µM, respectively.

The values above are taken from patent US9040527B2, “Pyrimidinediamine kinase inhibitors” (Rigel Pharmaceuticals, Inc., priority 2008, dated 2015).
